Assays:
Format in all cases: cell-based
KMS11 = assay: Bortezomib sensitivity of MM cell line KMS11
RPMI = assay: Bortezomib sensitivity of MM cell line RPMI
[1] = tested on: OPM and KMS11 multiple myeloma cell lines; assay: Live cell count (Yo-pro-1 iodide/PI negative) in MM cell lines stably expressing NF-κB2 constructs, treated with bortezomib; details: titrating doses, 24 hours; live cells
Method: A) Two multiple myeloma cell lines, OPM and KMS11, stably expressing the full length NF-κB2 (p100), NF-κB2-ankyrin domains, NF-κB2-death domain were generated using a pLenti6.2/V5-DEST lentivirus. Cells were then treated at titrating doses of bortezomib. After 24 hours the cells were harvested and stained with Yo-pro-1 iodide and propidium Iodide (PI, both from Invitrogen, Grand Island, N.Y.). Live cells were measured using a ImageXpress 5000A Automated Acquisition and Analysis System (Molecular Devices, Sunnyvale, Calif.), quantitating for Yo-pro-1 iodide and PI negative cells. B) OPM1 and RPMI cells stably expressing NF-κB2 (p100), NF-κB2-ankyrin domains or control vector (LacZ) were treated with 10 nM of bortezomib for 24 hours. Cells were harvested and Western blot was performed to assay for caspase 9, cleaved caspase 9 and 3 and actin.
For apoptosis studies, 10^4 cells were treated with titrating doses of doxorubicin (doses: […], Sigma) or rituximab (titrating doses: 1.5, 2.5, 5, 10 and 20 μg/mL, Biogen Idec Inc). Twenty four hours later cells were stained with Yo-pro-1 and Propidium Iodide (Invitrogen). Live cells were measured using a ImageXpress 5000A Automated Acquisition and Analysis System (Molecular Devices, Sunnyvale, Calif.), quantitating for Yo-pro-1 or PI negative cells.
Sequences of NF-κB2-shRNA are known. […]

[2] = tested on: Daudi and Raji lymphoma cell lines; assay: Apoptosis by flow cytometry (Annexin V) in lymphoma cell lines expressing p100 siRNA, treated with bortezomib
Method: (A) Two lymphoma cell lines, Daudi and Raji, expressing a p100 or a p105 siRNA were treated with titrating doses of bortezomib for 24 hours. […] Expression of p100 siRNA in two lymphoma cell lines, Daudi and Raji, reduce the protein levels of cleaved caspase 3 and 9. Western blot of Daudi and Raji cell lines expression p100 siRNA or luciferase were performed after 24 hours of treatment with titrating does of bortezomib.
Sequences of NF-κB2-shRNA are known. The sense shRNA oligonucleotide probes were as follows: p100, […] (SEQ ID NO: 12). Luciferase (Luc) shRNA plasmid was provided by S. Stewart. Short interfering hairpin RNA were expressed under U6 human promoter and were generated using PLKopuro.1. NF-κB2, NF-κB2-ankirin repeats region, NF-κB2-death domain and LcZ (control) were expressed under a CMV promoter and generated using a pLenti6/V5-DEST (Invitrogen Life Technologies). Recombinant lentiviruses were generated in 293T cells, for infection of all MM cell lines. Stable cell lines expressing shRNAs or the protein of interest were obtained after selecting cells with 2 μg/mL puromycin or 10 μg/mL, respectively. Cells were used for experiments two weeks after infection.

NF-κB = assay: NF-κB-luciferase reporter assay; details: Daudi and SC lymphoma cell lines; titrating doses, 24 hours
Method: Daudi and SC cell lines were transfected with a NF-κB-luciferase reporter construct (1 μg of DNA). Twenty four hours post-transfection, cells were treated with titrating doses of bortezomib. After 24 hours of treatment, cells were harvested and lysed with RIPA buffer. Twenty microliters of the lysate were mixed with Luciferase assay substrate (Promega, Madison, Wis.) followed by Stop & Glo reagent. Luciferase activity was then measured in a luminometer.

effect on NF-kB luciferase reporter activity (NF-κB): NF-kB inhibitory effects
Structure (SMILES): CC(C)C[C@H](NC(=O)[C@H](Cc1ccccc1)NC(=O)c1cnccn1)B(O)O [bortezomib]
bortezomib sensitivity of cell line (KMS11): resistant
bortezomib sensitivity of cell line (RPMI): resistant
sensitivity to bortezomib on expression of p100 (NF-κB2), NF-κB2-ankyrin domains and NF-κB2-death domain [1]: restores sensitivity
bortezomib sensitivity of lymphoma cells [2]: sensitive
bortezomib-induced apoptosis on p100 siRNA expression ([2]; titrating doses, 24 hours, Annexin V): reduces

Reference: US9856534B2, “Selecting use of proteasome inhibitors based on NF-κB2 sequence” (Emory University, priority 2011, dated 2018)
